The source of these data is US9662063B2, “Pain sensory nerve stimulation apparatus” (INTER-UNIVERSITY RESEARCH INSTITUTE CORPORATION NATIONAL …, priority 2011, dated 2017).

The subject of this experiment is C fibers. The experiment can be described thus: Current threshold for C fiber stimulation (anode stimulation) after application of capsaicin in vaseline to subjects. It counts as in vivo. As to conditions: for current threshold: anode stimulation of C fibers. An excerpt:
Even when any one of the above-described configurations of the stimulation electrode 30 is used, at least one of an exogenous algesic substance 60 and a pyrogen 60 is interposed between the stimulation electrode 30 and the contact portion of the living body A, by means of, for example, application (FIG. 1). Examples of the exogenous algesic substance 60 are capsaicin, sanshool, zingerone, camphor, allyl isothiocyanate, and menthol. The exogenous algesic substance is a concept which contains an algesic substance, a phlogogenic substance, and an irritating substance. In the case where the exogenous algesic substance 60 is interposed by means of application, it is preferably applied about 20 minutes before stimulation of the living body. Preferably, the pyrogen 60 warms the stimulation portion of the living body A to about 30° C. by, for example, using heat generation due to an oxidation reaction of a metal. The operating section 24 includes a polarity conversion setting unit. The polarity conversion setting unit can give instructions for causing the polarity switching section 25 which is the electrical polarity converting unit, to convert the electrical polarity. According to the configuration, the electrical polarity of the needle electrode 31 can be set as the anode, and that of the contact electrode 32 can be set as the cathode, or, by contrast, the electrical polarity of the needle electrode 31 can be set as the cathode, and that of the contact electrode 32 can be set as the anode. […] In the case where the polarity switching section 25 sets the electrical polarity of the needle electrode 31 as the cathode, moreover, Aδ fibers can be selectively stimulated. Table 1 indicates results of measurements in which an appropriate amount (a weight ratio of about 0.05 to 0.1 with respect to vaseline) of capsaicin was applied as the exogenous algesic substance to four subjects. Table 1 indicates relationships between the current threshold in the case where the anode stimulation was performed on each subject and C fibers of each subject was stimulated, and the time period elapsed after the application. […] Since an effect due to stimulation was obtained even at a low stimulation intensity (mA), this minimizes the burden on a subject, and realizes the check of the nerve function. It was also confirmed that an effective examination can be conducted without being affected by the skill of the measuring person.

Regarding `COc1cc(CNC(=O)CCCC/C=C/C(C)C)ccc1O` [capsaicin], the current threshold is on record as 0.10 (mA) (Subject 1, 5 minutes after application, capsaicin weight ratio about 0.05 to 0.1 with respect to vaseline); 0.10 (mA) (Subject 1, 10 minutes after application); 0.09 (mA) (Subject 1, 15 minutes after application); 0.09 (mA) (Subject 1, 20 minutes after application); 0.32 (mA) (Subject 2, 5 minutes after application); 0.18 (mA) (Subject 2, 10 minutes after application). Moreover, the current threshold runs as follows: (Subject 2, 15 minutes after application) 0.13 (mA); (Subject 2, 20 minutes after application) 0.15 (mA); (Subject 3, 5 minutes after application) 0.14 (mA); (Subject 3, 10 minutes after application) 0.13 (mA); (Subject 3, 20 minutes after application) 0.09 (mA); (Subject 4, 5 minutes after application) 0.05 (mA). For the same compound, the current threshold reads like this: (Subject 4, 10 minutes after application) 0.04 (mA); (Subject 4, 15 minutes after application) 0.04 (mA); (Subject 4, 20 minutes after application) 0.04 (mA). Besides, the “current threshold reduced to fraction of the normal value” (Subject 2, during 20 minutes after the application) is “about one half” and the “current threshold reduced to fraction of the normal value” (Subject 3, during 20 minutes after the application) is “about two thirds”. For the setting “four subjects, during 20 minutes after the application”, the “trend of the current threshold” value is reported as “downward trend”.
